Measured values published in ChEMBL document CHEMBL1857833, “Screening and optimization of specific chemical series against human African Trypanosomiasis (HAT)”.
Values after ≈ are worked out from the molar mass of the structure shown. Values joined by “and” are separate entries in the source; they are usually repeats but may differ in a detail not shown here. Equal entries are not always repeated.

Experiments:
[1] = (§1) DNDI: Cytotoxicity against L929 mouse fibroblasts, 72 hour.; format: toxicity, cell-based; conditions: mouse, L929 mouse fibroblasts
[2] = tested on: L929; assay: as §1; format: toxicity, cell-based; conditions: l929
[3] = tested on: Trypanosoma brucei; assay: DNDI: Inhibition of Human African Trypanosomiasis, SBRI 427, in vitro; format: functional, organism-based
[4] = DNDI: Lipophilicity measured in Chromatographic hydrophobicity index (CHI) assay, pH 7.4; format: physicochemical; conditions: buffer
[5] = DNDI: half-life in mouse S9 microsomes at a concentration of 1uM; format: ADME, subcellular, Liver, S9 fraction
[6] = DNDI: half-life in mouse S9 microsomes at a concentration of 10uM; format: ADME, subcellular, Liver, S9 fraction
[7] = molecular target: T1, MDR1 (ABCB1) (Homo sapiens, UniProt P08183); assay: DNDI: % of compound recovered from apical to basolateral permeability assay in MDCK cells transfected with human MDR1 after 60 mins at a concentration of 3uM; format: ADME, cell-based, Canis lupus familiaris; conditions: dog
[8] = molecular target: T1, MDR1 (ABCB1); assay: DNDI: Apparent permeability from apical to basolateral side of the MDCK cell transfected with human MDR1after 60 mins at a concentration of 3uM; format: ADME, cell-based, Canis lupus familiaris; conditions: dog, MDCK-MDR1
[9] = molecular target: T1, MDR1 (ABCB1); assay: DNDI: % of compound recovered from apical to basolateral permeability assay in MDCK cells transfected with human MDR1 after 60 mins at a concentration of 3uM in the presence of GF120918; format: ADME, cell-based, Canis lupus familiaris; conditions: dog, MDCK-MDR1, with GF120918 (concentration not stated)
[10] = DNDI: Solubility in phosphate buffered saline at pH7.4 measured by nephelometry at room temperature (NEPH-RT); format: physicochemical; conditions: pH 7.4
[11] = tested on: Trypanosoma cruzi; assay: DNDI: Inhibition of Chagas Disease parasite Trypanosoma cruzi (Tulahuen LacZ, Clone C4), in vitro.; format: functional, organism-based
[12] = (§2) DNDI: Cytotoxicity against L929 mouse fibroblasts, CYTO-SP, 24 hour; format: toxicity, cell-based; conditions: mouse, L929 mouse fibroblasts
[13] = DNDI: Cytotoxicity against L-6 rat myoblasts from skeletal muscle cells; format: toxicity, cell-based, L6; conditions: L-6 rat skeletal muscle myoblasts
[14] = tested on: Trypanosoma brucei; assay: DNDI: Inhibition of Human African Trypanosomiasis, Cross 22, in vitro; format: functional, organism-based
[15] = tested on: Trypanosoma brucei; assay: DNDI: Inhibition of Human African Trypanosomiasis, EATRO 110, in vitro; format: functional, organism-based
[16] = tested on: Trypanosoma brucei rhodesiense; assay: DNDI: Inhibition of Human African Trypanosomiasis (HAT), STIB 900, in vitro; format: functional, organism-based
[17] = tested on: Leishmania donovani; assay: DNDI: Inhibition of formation of Leishmania donovani (strain MHOM/ET/67/L82) axenic amastigotes, in vitro.; format: functional, organism-based
[18] = tested on: Plasmodium falciparum; assay: DNDI: Inhibition of the malaria parasite Plasmodium falciparum, in vitro; format: functional, organism-based; conditions: K1
[19] = DNDI: half life in human liver microsomes at a concentration of 10uM; format: ADME, Microsome
[20] = DNDI: in vitro intrinsic clearance in human liver microsomes at a concentration of 10uM; format: ADME, Microsome
[21] = DNDI: in vitro intrinsic clearance in mouse liver microsomes at a concentration of 10uM; format: ADME, Microsome; conditions: read-out: CLint in vitro
[22] = DNDI: half life in mouse liver microsomes at a concentration of 10uM; format: ADME, Microsome
[23] = molecular target: T1, MDR1 (ABCB1); assay: DNDI: % of compound recovered from apical to basolateral permeability assay in MDCK cells transfected with human MDR1; format: ADME, cell-based, Canis lupus familiaris; conditions: dog
[24] = molecular target: T1, MDR1 (ABCB1); assay: DNDI: Apparent permeability from apical to basolateral side of the MDCK cell transfected with human MDR1; format: ADME, cell-based, Canis lupus familiaris; conditions: dog
[25] = molecular target: T1, MDR1 (ABCB1); assay: DNDI: Apparent permeability from basolateral to apical side of the MDCK cell transfected with human MDR1 after 60 mins at a concentration of 3uM; format: ADME, cell-based, Canis lupus familiaris; conditions: dog
[26] = molecular target: T1, MDR1 (ABCB1); assay: DNDI: % of compound recovered from basolateral to apical permeability assay in MDCK cells transfected with human MDR1; format: ADME, cell-based, Canis lupus familiaris; conditions: dog
[27] = molecular target: T1, MDR1 (ABCB1); assay: DNDI: Efflux ratio for permeability from basolateral to apical side to apical to basolateral side of MDCK cells transfected with human MDR1; format: ADME, cell-based, Canis lupus familiaris; conditions: dog, read-out: B-A/A-B
[28] = DNDI: Solubility in phosphate buffered saline at pH7.4 measured by optical density (turbidimetry) at room temperature (OD-RT); format: physicochemical; conditions: pH 7.4
[29] = mouse, microsomes, 1 µM
Description: (§4) DNDI: in vitro intrinsic clearance in mouse liver microsomes at a concentration of 1uM

[30] = in vitro; conditions: mouse, t (1 / 2)
Description: (§5) DNDI: half life in mouse liver microsomes at a concentration of 1uM

[31] = tested on: L929; assay: as §2; format: toxicity, cell-based; conditions: l929
[32] = tested on: Trypanosoma brucei; assay: (§3) DNDI: Mean survival time in days (MSD) of mice after intraperitoneal injection of Human African Trypanosomiasis (HAT), EATRO 110, in vivo at 20 mg/kg/day for 4 days.; format: functional, Mus musculus
[33] = tested on: Trypanosoma brucei; assay: DNDI: Mean survival time in days (MSD) of mice after intraperitoneal injection of Human African Trypanosomiasis (HAT), EATRO 110, in vivo at 5 mg/kg/day for 4 days.; format: functional, Mus musculus
[34] = tested on: Trypanosoma brucei; assay: as §3; format: functional, Mus musculus; remark: listed apart in the source
[35] = mouse, microsomes, 1 µM; remark: listed apart in the source
Description: as §5

[36] = in vitro; conditions: human, liver microsomes, t (1 / 2)
Description: DNDI: half life in human liver microsomes at a concentration of 1uM

[37] = in vitro; conditions: human, liver microsomes, CLint in vitro
Description: DNDI: in vitro intrinsic clearance in human liver microsomes at a concentration of 1uM

[38] = in vitro; conditions: mouse, liver microsomes
Description: as §4

[39] = Trypanosoma brucei, SBRI 427, read-out: IC50

T1 sequence (P08183 whole entry): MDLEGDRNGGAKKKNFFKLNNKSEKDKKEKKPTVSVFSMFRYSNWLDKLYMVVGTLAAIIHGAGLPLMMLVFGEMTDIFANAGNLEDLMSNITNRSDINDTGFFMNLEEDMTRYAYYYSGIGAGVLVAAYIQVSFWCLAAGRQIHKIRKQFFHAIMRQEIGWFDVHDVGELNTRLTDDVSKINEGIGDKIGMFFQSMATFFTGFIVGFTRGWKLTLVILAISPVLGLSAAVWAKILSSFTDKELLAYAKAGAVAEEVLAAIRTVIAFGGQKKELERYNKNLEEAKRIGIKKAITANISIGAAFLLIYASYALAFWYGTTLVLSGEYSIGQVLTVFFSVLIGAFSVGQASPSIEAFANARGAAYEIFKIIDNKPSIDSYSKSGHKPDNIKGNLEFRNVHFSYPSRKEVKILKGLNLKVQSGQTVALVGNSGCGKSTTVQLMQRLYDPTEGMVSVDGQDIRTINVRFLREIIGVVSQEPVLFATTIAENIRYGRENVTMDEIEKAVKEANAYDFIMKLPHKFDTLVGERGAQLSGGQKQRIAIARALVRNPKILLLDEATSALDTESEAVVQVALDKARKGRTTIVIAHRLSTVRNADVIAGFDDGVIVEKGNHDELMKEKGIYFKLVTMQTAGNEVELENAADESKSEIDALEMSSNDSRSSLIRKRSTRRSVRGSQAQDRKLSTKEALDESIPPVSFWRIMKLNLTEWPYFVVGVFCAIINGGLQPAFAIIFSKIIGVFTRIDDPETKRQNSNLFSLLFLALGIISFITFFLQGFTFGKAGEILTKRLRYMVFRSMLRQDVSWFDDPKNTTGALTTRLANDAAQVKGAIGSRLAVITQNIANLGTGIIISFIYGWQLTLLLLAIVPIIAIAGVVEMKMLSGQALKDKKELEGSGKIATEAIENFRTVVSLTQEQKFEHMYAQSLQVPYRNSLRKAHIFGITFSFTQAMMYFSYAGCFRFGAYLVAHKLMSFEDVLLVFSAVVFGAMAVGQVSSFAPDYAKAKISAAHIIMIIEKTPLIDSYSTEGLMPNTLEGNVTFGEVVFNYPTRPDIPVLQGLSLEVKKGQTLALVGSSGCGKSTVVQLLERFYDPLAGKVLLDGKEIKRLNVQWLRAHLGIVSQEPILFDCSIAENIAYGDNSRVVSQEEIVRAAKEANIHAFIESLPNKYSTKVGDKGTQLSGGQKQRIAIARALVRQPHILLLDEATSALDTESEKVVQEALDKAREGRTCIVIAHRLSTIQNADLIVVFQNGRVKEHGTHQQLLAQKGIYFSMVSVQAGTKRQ

SMILES | IC50 [3, 39] [µg/mL] | chromatographic logD [4] | solubility kinetic [10] [µM] | IC50 [11] [µg/mL] | IC50 [14] [µg/mL] | IC50 [16] [µg/mL] | IC50 [17] [µg/mL] | IC50 [18] [µg/mL] | half-life at 10 µM [19] [min] | CLint in vitro [20] [µL/min/mg] | microsomal CLint at 10 µM [21] [µL/min/mg] | half-life at 10 µM [22] [min] | solubility kinetic [28] [µM] | CLint in vitro [29] [µL/min/mg] | half-life at 1 µM ([30]; liver microsomes) [min] | IC50 at 72 h [1] [µg/mL] | IC50 [2] [µg/mL] | IC50 at 24 h [12] [µg/mL] | IC50 [13] [µg/mL] | also measured
CCCCc1ccc(-c2nc(CNCC(C)(C)CN)co2)cc1 | 0.39 (≈ 1.24 µM) | – | – | – | – | – | – | – | – | – | – | – | – | – | – | 1.81 (≈ 5.74 µM) | 2.96 (≈ 9.38 µM) | – | – | –
CCCCCC(C)NCc1coc(-c2ccc(OCC)cc2)n1 (stereo not drawn) | – | 4.95 | – | 7.7 (≈ 24.3 µM) | 0.67 (≈ 2.12 µM) | 0.342 (≈ 1.08 µM) | 12.3 (≈ 38.8 µM) | 1.38 (≈ 4.36 µM) | 88 | 33 | 3 | 882 | 32 (≈ 10.1 µg/mL) | 36 | 23 | 5.27 (≈ 16.7 µM) | – | > 50 | 8.28 (≈ 26.2 µM) | IC50 [15]: 0.8 µg/mL (≈ 2.53 µM); recovery [23]: 33%; Papp A→B [24]: 20.9 ×10⁻⁶ cm/s; Papp B→A at 1 h, 3 µM [25]: 22 ×10⁻⁶ cm/s; recovery [26]: 56%; efflux ratio [27]: 1
CCCCc1ccc(-c2nc(CNC3CC(C)CC(C)(C)C3)co2)cc1 (stereo not drawn) | – | 5.99 | 6 (≈ 2.13 µg/mL) | 2 (≈ 5.64 µM) | 0.34 (≈ 0.959 µM) | 0.348 (≈ 0.982 µM) | 5.26 (≈ 14.8 µM) | 0.521 (≈ 1.47 µM) | – | – | – | – | – | 3 | 192 | 0.64 (≈ 1.81 µM) | 1.26 (≈ 3.55 µM) | > 50 | 1.73 (≈ 4.88 µM) | MSD [32]: 2.5 days; MSD [33]: 4 days; MSD [34]: 4 days; t (1 / 2) [35]: 251 min and 224 min; half-life at 1 µM [36]: 59 min; microsomal CLint at 1 µM [37]: 14 µL/min/mg; microsomal CLint at 1 µM [38]: 4 µL/min/mg

Now from value to compound, other results behind:

IC50 [3, 39] [µg/mL] | chromatographic logD [4] | solubility kinetic [10] [µM] | IC50 [11] [µg/mL] | IC50 [14] [µg/mL] | IC50 [16] [µg/mL] | IC50 [17] [µg/mL] | IC50 [18] [µg/mL] | half-life at 10 µM [19] [min] | CLint in vitro [20] [µL/min/mg] | microsomal CLint at 10 µM [21] [µL/min/mg] | half-life at 10 µM [22] [min] | solubility kinetic [28] [µM] | CLint in vitro [29] [µL/min/mg] | half-life at 1 µM ([30]; liver microsomes) [min] | SMILES | IC50 at 72 h [1] [µg/mL] | IC50 [2] [µg/mL] | IC50 at 24 h [12] [µg/mL] | IC50 [13] [µg/mL] | also measured
> 5 | 3.44 | 50 (≈ 15.6 µg/mL) | – | – | – | – | – | – | – | – | – | – | – | – | Cc1cc(N2CCNCC2)n2nc(-c3cccc(F)c3)cc2n1 | 9.09 (≈ 29.2 µM) | – | – | – | half-life at 1 µM [5]: 45.7 min; half-life at 10 µM [6]: 214 min; recovery at 1 h, 3 µM [7]: 70.4%; Papp A→B at 1 h, 3 µM [8]: 45.2 ×10⁻⁶ cm/s; recovery at 1 h, 3 µM [9]: 63.6%
– | 5.22 | – | – | 1.72 (≈ 4.85 µM) | – | – | – | 174 | 17 | 121 | 24 | 6.3 (≈ 2.23 µg/mL) | 207 | 4 | CCOc1ccc(-c2nc(CNC3C[C@@H]4C[C@H]([C@H]3C)C4(C)C)co2)cc1 (stereo partly drawn) | 3.51 (≈ 9.9 µM) | – | > 50 | – | IC50 [31]: 28.6 µg/mL (≈ 80.7 µM); IC50 [15]: 1.16 µg/mL (≈ 3.27 µM); IC50 [3]: 1.07 ug/ml [middle of 5 runs]
1.17 (≈ 3.76 µM) | 3.92 | – | > 30 | – | 27.6 (≈ 88.6 µM) | 44 (≈ 141 µM) | 4.2 (≈ 13.5 µM) | 314 | 9 | 275 | 11 | 63 (≈ 19.6 µg/mL) | 423 | – | O/N=C(/NC1CCCCC1)c1cccnc1Oc1ccccc1 | > 10 | – | > 50 | 43.9 (≈ 141 µM) | recovery [23]: 66%; Papp A→B [24]: 30.9 ×10⁻⁶ cm/s; Papp B→A at 1 h, 3 µM [25]: 51.4 ×10⁻⁶ cm/s; recovery [26]: 83%; efflux ratio [27]: 1.7; half-life at 1 µM ([30]; microsomes): 2 min
0.555 (≈ 1.43 µM) | 4.2 | 13 (≈ 5.04 µg/mL) | – | – | – | – | – | – | – | – | – | – | – | – | Fc1ccc(-c2cc3nc(-c4ccccc4)cc(NC4CCNCC4)n3n2)cc1 | 1.11 (≈ 2.86 µM) | – | – | – | half-life at 1 µM [5]: > 350 min; half-life at 10 µM [6]: > 350 min
0.6 (≈ 1.98 µM) | – | – | – | – | – | – | – | – | – | – | – | – | – | – | CCCCc1ccc(-c2nc(CNCC(O)CN)co2)cc1 (stereo not drawn) | 2.91 (≈ 9.59 µM) | 3.31 (≈ 10.9 µM) | – | – | –
